From ChEMBL document CHEMBL5723379, “Affinity On-target Cellular Literature for EUbOPEN Chemogenomic Library” (2024)

Tests used:
[1] = molecular target: T1, Peroxisome proliferator-activated receptor delta (Homo sapiens, UniProt Q03181); test: Affinity On-target Cellular interaction: (Reporter gene assay (HEK293T cells)) EUB0001483aCl PPARD; type: functional, cell-based, HEK-293T; set-up: mode of action Antagonist, recommended concentration 10 uM
T1 sequence (Q03181 whole entry): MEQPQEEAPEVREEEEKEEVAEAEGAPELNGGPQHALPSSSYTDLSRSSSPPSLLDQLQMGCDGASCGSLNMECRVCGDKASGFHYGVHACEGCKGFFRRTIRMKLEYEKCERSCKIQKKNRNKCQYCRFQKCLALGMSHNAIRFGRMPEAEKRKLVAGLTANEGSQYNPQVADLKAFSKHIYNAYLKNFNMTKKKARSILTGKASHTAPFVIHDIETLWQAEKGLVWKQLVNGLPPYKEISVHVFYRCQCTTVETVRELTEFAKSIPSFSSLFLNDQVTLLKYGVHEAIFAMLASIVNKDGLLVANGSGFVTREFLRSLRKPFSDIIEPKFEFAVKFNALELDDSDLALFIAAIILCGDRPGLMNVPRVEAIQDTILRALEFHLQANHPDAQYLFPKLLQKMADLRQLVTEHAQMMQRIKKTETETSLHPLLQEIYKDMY

[2] = molecular target: T2, Nuclear receptor ROR-beta (Homo sapiens, UniProt Q92753); test: Affinity On-target Cellular interaction: (Reporter gene assay (HEK293T cells)) EUB0001161a RORB; type: functional, cell-based, HEK-293T; set-up: mode of action Antagonist, recommended concentration 10 uM
T2 sequence (Q92753 whole entry): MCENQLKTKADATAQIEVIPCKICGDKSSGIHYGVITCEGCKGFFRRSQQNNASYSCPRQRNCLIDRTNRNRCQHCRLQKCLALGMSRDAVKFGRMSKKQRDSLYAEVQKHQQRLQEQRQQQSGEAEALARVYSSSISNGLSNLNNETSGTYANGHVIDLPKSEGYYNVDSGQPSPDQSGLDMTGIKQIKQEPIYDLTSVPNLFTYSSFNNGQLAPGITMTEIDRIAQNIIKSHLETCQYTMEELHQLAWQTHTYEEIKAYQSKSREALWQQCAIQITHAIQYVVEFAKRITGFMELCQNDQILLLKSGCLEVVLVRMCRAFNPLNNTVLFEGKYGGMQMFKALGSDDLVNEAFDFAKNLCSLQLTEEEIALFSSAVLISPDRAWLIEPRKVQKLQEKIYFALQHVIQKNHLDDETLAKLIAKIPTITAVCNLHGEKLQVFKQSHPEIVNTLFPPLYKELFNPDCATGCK

[3] = molecular target: Nuclear receptor subfamily 1 group D member 1 (Homo sapiens, UniProt P20393); test: Affinity On-target Cellular interaction: (Reporter gene assay (HEK293T cells)) EUB0001153a NR1D1; type: functional, cell-based, HEK-293T; set-up: mode of action Antagonist, recommended concentration 10 uM
Nuclear receptor subfamily 1 group D member 1, sequence (P20393 whole entry): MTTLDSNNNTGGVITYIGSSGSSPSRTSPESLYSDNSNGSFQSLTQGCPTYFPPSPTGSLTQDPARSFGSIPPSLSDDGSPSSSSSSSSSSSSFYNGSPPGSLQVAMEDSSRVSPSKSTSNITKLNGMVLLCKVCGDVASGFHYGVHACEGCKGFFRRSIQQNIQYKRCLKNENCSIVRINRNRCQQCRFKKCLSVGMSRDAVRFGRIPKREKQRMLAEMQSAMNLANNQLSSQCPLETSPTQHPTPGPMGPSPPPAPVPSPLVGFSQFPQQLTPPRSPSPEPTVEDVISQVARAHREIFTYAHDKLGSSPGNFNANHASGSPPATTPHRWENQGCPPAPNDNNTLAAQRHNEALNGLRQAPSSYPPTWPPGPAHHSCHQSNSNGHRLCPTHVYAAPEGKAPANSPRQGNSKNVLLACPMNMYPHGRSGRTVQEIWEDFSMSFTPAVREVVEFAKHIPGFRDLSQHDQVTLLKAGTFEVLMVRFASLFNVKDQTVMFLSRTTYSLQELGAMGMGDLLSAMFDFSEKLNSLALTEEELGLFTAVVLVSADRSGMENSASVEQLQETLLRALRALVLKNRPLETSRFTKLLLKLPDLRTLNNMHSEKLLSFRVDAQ

[4] = molecular target: T3, Nuclear receptor subfamily 1 group I member 2 (Homo sapiens, UniProt O75469); test: Affinity On-target Cellular interaction: (Reporter gene assay (HEK293T cells)) EUB0002359a NR1I2; type: functional, cell-based, HEK-293T; set-up: mode of action Agonist, recommended concentration 1 uM
T3 sequence (O75469 whole entry): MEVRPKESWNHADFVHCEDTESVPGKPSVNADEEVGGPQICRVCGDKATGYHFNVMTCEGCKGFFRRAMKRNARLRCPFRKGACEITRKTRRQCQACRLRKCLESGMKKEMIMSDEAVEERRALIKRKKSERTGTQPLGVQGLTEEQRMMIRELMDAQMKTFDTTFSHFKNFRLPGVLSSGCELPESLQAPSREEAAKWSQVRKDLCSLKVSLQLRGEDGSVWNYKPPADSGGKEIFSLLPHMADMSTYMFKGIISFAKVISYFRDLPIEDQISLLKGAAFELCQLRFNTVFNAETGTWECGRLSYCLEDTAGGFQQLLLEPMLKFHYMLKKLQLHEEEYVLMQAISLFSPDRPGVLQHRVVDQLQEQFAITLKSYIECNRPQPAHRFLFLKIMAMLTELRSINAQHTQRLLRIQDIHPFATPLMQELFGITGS

[5] = molecular target: Histone deacetylase 2 (Homo sapiens, UniProt Q92769); test: Affinity On-target Cellular interaction: (Inhibition of enzyme activity in 293T cells transfected with vector alone) EUB0002519a HDAC2; type: functional, cell-based, HEK-293T; set-up: mode of action Inhibitor, recommended concentration 1 uM
Histone deacetylase 2, sequence (Q92769 whole entry): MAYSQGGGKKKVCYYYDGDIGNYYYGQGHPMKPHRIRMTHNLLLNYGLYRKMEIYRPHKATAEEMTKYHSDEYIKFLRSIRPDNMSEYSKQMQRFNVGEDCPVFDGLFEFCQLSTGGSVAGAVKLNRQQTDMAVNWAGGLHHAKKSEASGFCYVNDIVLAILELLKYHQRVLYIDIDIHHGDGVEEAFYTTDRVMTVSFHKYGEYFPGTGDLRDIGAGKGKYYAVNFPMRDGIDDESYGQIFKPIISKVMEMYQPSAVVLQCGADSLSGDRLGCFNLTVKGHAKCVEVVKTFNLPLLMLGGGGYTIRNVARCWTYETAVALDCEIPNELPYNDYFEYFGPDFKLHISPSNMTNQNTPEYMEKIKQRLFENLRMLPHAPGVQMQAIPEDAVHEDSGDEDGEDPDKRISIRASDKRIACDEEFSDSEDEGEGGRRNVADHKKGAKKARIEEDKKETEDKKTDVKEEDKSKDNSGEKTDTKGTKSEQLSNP

[6] = molecular target: Histone deacetylase 1 (Homo sapiens, UniProt Q13547); test: Affinity On-target Cellular interaction: (Inhibition of enzyme activity in 293T cells transfected with vector alone) EUB0002519a HDAC1; type: functional, cell-based, HEK-293T; set-up: mode of action Inhibitor, recommended concentration 1 uM
Histone deacetylase 1, sequence (Q13547 whole entry): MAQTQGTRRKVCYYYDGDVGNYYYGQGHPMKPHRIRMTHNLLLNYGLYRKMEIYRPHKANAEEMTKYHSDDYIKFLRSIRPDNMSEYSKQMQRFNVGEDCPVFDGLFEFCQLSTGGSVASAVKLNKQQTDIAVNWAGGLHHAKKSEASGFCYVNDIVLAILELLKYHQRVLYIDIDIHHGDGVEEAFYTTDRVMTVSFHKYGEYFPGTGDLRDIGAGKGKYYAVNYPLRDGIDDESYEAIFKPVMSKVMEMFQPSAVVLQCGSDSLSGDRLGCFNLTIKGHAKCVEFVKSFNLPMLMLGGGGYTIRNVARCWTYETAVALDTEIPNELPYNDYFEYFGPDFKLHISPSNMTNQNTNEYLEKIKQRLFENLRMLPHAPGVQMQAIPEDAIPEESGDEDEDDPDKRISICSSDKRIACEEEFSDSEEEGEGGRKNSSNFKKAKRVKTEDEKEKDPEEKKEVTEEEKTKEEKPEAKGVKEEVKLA

[7] = molecular target: T4, Oxysterols receptor LXR-beta (Homo sapiens, UniProt P55055); test: Affinity On-target Cellular interaction: (Reporter gene assay (HEK293T cells)) EUB0001167a NR1H2; type: functional, cell-based, HEK-293T; set-up: mode of action Agonist, recommended concentration 1 uM
T4 sequence (P55055 whole entry): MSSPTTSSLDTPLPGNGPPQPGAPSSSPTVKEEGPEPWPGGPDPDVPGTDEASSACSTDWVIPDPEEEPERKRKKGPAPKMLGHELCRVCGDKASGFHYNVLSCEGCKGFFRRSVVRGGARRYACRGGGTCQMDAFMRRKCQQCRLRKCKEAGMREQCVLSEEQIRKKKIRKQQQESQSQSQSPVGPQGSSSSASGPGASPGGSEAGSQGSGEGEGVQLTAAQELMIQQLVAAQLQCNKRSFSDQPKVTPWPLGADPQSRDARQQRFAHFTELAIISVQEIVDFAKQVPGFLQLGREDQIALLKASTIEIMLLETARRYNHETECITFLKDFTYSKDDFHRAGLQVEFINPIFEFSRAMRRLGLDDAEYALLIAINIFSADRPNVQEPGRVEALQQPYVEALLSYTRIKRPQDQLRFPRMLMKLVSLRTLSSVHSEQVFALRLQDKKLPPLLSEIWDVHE

[8] = molecular target: Histone-lysine N-methyltransferase EZH1 (Homo sapiens, UniProt Q92800); test: Affinity On-target Cellular interaction: (Protein substrate methylation in WSU-DLCL2 cells) EUB0002228a EZH1; type: functional, cell-based, WSUDLCL2; set-up: mode of action Inhibitor, recommended concentration 1 uM
Histone-lysine N-methyltransferase EZH1, sequence (Q92800 whole entry): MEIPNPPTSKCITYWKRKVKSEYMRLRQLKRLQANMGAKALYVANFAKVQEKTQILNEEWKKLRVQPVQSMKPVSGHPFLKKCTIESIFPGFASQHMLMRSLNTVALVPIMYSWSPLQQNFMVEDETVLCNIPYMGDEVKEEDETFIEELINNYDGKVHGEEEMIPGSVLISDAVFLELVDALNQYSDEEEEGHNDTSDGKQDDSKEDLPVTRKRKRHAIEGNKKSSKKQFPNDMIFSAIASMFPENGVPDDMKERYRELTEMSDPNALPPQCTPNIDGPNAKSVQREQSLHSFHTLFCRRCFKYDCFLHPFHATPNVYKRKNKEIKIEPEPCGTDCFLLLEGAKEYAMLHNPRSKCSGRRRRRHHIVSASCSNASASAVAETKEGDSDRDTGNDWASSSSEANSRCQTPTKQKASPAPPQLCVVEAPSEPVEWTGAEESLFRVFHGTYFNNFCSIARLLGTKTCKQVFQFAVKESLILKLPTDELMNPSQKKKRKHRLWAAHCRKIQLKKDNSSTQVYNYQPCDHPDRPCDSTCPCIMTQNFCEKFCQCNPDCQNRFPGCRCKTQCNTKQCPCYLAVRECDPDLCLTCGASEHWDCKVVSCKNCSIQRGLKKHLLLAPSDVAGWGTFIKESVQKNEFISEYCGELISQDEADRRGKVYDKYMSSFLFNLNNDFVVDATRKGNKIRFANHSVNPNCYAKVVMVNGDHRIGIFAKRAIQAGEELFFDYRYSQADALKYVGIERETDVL

[9] = molecular target: T3, Nuclear receptor subfamily 1 group I member 2; test: Affinity On-target Cellular interaction: (Reporter gene assay (HEK293T cells)) EUB0002358a NR1I2; type: functional, cell-based, HEK-293T; set-up: mode of action Agonist, recommended concentration 10 uM
[10] = molecular target: T5, Nuclear receptor ROR-gamma (Homo sapiens, UniProt P51449)
T5 sequence (P51449 whole entry): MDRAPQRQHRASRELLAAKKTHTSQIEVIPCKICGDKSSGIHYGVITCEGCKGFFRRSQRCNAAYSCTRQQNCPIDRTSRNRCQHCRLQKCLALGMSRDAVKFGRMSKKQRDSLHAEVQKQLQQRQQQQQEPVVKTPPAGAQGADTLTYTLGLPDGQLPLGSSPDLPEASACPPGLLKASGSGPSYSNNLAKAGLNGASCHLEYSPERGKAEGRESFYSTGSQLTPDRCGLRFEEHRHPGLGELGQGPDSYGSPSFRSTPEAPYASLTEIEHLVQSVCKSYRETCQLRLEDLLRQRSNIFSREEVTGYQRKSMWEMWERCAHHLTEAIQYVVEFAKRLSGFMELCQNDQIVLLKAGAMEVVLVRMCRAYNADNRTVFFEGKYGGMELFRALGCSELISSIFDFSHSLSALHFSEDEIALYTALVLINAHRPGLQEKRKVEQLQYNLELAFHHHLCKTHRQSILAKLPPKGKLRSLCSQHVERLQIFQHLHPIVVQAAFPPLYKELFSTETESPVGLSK

[11] = molecular target: Nuclear receptor ROR-alpha (Homo sapiens, UniProt P35398); test: Affinity On-target Cellular interaction: (Reporter gene assay (HEK293T cells)) EUB0001158a RORA; type: functional, cell-based, HEK-293T; set-up: mode of action Inverse Agonist, recommended concentration 1 uM
Nuclear receptor ROR-alpha, sequence (P35398 whole entry): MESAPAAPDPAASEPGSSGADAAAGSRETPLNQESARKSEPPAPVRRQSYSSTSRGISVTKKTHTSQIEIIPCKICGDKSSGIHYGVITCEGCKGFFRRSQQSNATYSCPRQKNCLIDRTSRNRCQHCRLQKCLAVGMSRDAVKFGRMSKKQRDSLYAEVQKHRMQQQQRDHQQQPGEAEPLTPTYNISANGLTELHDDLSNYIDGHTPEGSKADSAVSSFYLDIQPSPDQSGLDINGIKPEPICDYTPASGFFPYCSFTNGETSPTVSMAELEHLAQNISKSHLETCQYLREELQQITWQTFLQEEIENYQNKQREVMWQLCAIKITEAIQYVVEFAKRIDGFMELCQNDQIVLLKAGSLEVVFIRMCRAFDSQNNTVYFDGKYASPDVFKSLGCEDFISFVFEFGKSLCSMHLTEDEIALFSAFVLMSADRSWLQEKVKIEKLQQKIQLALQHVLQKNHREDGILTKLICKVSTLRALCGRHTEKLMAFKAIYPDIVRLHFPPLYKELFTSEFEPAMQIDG

[12] = molecular target: T2, Nuclear receptor ROR-beta; test: Affinity On-target Cellular interaction: (Reporter gene assay (HEK293T cells)) EUB0001158a RORB; type: functional, cell-based, HEK-293T; set-up: mode of action Inverse Agonist, recommended concentration 1 uM
[13] = molecular target: T6, Oxysterols receptor LXR-alpha (Homo sapiens, UniProt Q13133); test: Affinity On-target Cellular interaction: (Reporter gene assay (HEK293T cells)) EUB0001482aCl NR1H3; type: functional, cell-based, HEK-293T; set-up: mode of action Agonist, recommended concentration 10 uM
T6 sequence (Q13133 whole entry): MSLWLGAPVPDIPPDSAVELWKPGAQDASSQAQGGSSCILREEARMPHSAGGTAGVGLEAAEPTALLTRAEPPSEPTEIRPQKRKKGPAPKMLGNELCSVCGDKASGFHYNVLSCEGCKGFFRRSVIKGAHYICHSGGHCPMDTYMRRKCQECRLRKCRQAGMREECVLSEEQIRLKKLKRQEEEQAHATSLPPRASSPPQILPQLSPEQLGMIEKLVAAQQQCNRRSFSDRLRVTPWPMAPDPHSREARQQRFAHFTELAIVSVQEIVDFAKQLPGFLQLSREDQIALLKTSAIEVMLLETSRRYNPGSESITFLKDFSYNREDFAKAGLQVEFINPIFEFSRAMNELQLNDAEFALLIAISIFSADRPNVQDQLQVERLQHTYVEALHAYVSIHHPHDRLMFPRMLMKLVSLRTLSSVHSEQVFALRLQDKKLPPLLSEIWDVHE

[14] = molecular target: T4, Oxysterols receptor LXR-beta; test: Affinity On-target Cellular interaction: (Reporter gene assay (HEK293T cells)) EUB0001482aCl NR1H2; type: functional, cell-based, HEK-293T; set-up: mode of action Agonist, recommended concentration 10 uM
[15] = molecular target: T4, Oxysterols receptor LXR-beta; test: Affinity On-target Cellular interaction: (Reporter gene assay (HEK293T cells)) EUB0001166a NR1H2; type: functional, cell-based, HEK-293T; set-up: mode of action Agonist, recommended concentration 1 uM
[16] = molecular target: T6, Oxysterols receptor LXR-alpha; test: Affinity On-target Cellular interaction: (Reporter gene assay (HEK293T cells)) EUB0001166a NR1H3; type: functional, cell-based, HEK-293T; set-up: mode of action Agonist, recommended concentration 1 uM
[17] = molecular target: Poly [ADP-ribose] polymerase 1 (Homo sapiens, UniProt P09874); test: Affinity On-target Cellular interaction: (Inhibition of H2O2 induced PAR formation in Capan-1 cells) EUB0002633aCl PARP1; type: functional, cell-based; set-up: mode of action Inhibitor, recommended concentration 1 uM
Poly [ADP-ribose] polymerase 1, sequence (P09874 whole entry): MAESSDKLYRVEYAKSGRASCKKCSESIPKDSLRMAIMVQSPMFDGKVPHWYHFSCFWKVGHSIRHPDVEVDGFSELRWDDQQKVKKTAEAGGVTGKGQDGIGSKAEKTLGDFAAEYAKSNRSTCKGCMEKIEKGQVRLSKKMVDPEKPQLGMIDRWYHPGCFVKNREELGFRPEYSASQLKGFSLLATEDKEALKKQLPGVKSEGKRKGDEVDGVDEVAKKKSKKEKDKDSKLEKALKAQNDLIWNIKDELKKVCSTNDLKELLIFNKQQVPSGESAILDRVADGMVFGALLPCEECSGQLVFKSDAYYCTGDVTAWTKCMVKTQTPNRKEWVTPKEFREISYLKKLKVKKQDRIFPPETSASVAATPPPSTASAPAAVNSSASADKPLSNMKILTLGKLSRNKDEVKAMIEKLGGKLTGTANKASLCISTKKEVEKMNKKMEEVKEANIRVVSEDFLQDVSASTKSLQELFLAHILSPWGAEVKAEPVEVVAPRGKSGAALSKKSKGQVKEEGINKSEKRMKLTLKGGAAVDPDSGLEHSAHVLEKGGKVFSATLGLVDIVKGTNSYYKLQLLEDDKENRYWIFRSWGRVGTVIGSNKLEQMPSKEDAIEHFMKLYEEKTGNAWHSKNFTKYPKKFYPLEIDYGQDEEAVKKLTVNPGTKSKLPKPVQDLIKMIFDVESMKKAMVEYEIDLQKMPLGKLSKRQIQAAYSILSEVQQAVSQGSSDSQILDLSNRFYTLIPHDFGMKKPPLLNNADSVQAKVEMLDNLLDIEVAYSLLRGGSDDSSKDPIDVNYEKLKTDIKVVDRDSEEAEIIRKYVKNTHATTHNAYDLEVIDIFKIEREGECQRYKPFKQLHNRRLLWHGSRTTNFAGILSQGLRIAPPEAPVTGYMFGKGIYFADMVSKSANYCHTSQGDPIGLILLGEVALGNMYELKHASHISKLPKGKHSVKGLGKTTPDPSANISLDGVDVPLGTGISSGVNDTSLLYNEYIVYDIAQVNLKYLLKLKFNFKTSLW

## CN1CCN(c2ccc(/C=C(\C#N)c3ccccc3Br)cc2)CC1
[1]
  IC50: 1800 nM

## COc1cc(O)c(C(CC(=O)N2C[C@H](C)C[C@H](C)C2)c2ccc3c(c2)OCO3)c(OC)c1 (some centres not stated)
[2]
  IC50: 1300 nM

## CCOC(=O)C1Cc2ccccc2CN1C(=O)c1ccc(SC)s1 (configuration not stated)
[3]
  IC50: 470 nM

## CC(C)c1c(CN(C)C(C)Cc2ccccc2)n(C)n(-c2ccccc2)c1=O (configuration not stated) [FAMPROFAZONE]
[4]
  EC50: 130 nM

## Nc1ccc(-c2cccs2)cc1NC(=O)c1ccc(NC=O)cc1
[5]
  IC50: 300 nM
[6]
  IC50: 300 nM

## CC(=O)Oc1ccc2c(c1)[C@@]1(C)CCC[C@](C)(C(=O)OC(=O)[C@@]3(C)CCC[C@]4(C)c5cc(OC(C)=O)ccc5CC[C@@H]34)[C@@H]1CC2 [ACETYL PODOCARPIC ACID ANHYDRIDE]
[7]
  EC50: 1 nM

## CCN(c1cc(C#CCN2CCOCC2)cc(C(=O)NCc2c(C)cc(C)[nH]c2=O)c1C)[C@H]1CC[C@H](N(C)CCOC)CC1
[8]
  IC50: < 100 nM

## O=c1[nH]c2ccccc2n1CCCN1CCN(C(c2ccccc2)c2ccccc2)CC1 [OXATOMIDE]
[9]
  EC50: 6000 nM

## CC(=O)Nc1nc(C)c(S(=O)(=O)Nc2ccc(C(O)(C(F)(F)F)C(F)(F)F)cc2)s1
[10]
  IC50: 110 nM
[11]
  IC50: 900 nM
[12]
  IC50: 1100 nM

## C[C@H](CCOc1cccc(CC(=O)O)c1)N(Cc1cccc(C(F)(F)F)c1Cl)CC(c1ccccc1)c1ccccc1
[13]
  EC50: 3300 nM
[14]
  EC50: 2900 nM

## CC(C)(O)c1cn(-c2ccc(-c3cccc(S(C)(=O)=O)c3)cc2)c(C(C)(C)c2ccccc2Cl)n1 [BMS-779788]
[15]
  EC50: 300 nM
[16]
  EC50: 200 nM

## CNCc1ccc(-c2cc3cc(F)cc(C(N)=O)c3o2)cc1
[17]
  IC50: 69.9 nM
